{"source": "PubChem BioAssay AID1259409", "about": "(Chemical Carcinogenesis Research Information System (CCRIS), 2018)", "origin": "cited, not measured here", "system": "rodent chemically induced tumor inhibition, incidence and multiplicity", "assay": "CCRIS tumor inhibitor studies", "conditions": "Carcinogen: 7,12-DIMETHYLBENZ[A]ANTHRACENE, 57-97-6, Route [Inhibitor]: DERMAL, Species: MOUSE, Target Tissue: Type of Lesion: SKIN: PAPILLOMA, Dose [Carcinogen]: 200 NMOL IN 0.2 ML ACETONE ONCE, Promoter: 12-O-TETRADECANOYLPHORBOL-13-ACETATE, 16561-29-8", "data": [{"smiles": "C/C(=C\\c1ccc(C(=O)O)cc1)c1ccc2c(c1)SCCC2(C)C", "values": [{"measurement": "tumour outcome (control, treated, inhibition, significance)", "setting": "Dose [Inhibitor]: 1.7 NMOL IN 0.2 ML ACETONE 1 HR PRIOR TO EACH PROMOTER DOSE FOR 12 WK (STUDY DURATION: 14 WK), Strain/Sex: SENCAR/FEMALE", "result": "100%, 70%, 30%, not calculated"}, {"measurement": "tumour outcome (control, treated, inhibition, significance)", "setting": "Dose [Inhibitor]: 1.7 NMOL IN 0.2 ML ACETONE 1 HR PRIOR TO EACH PROMOTER DOSE FOR 20 WK (STUDY DURATION: 22 WK), Strain/Sex: CD-1/FEMALE", "result": "94%, 67%, 29%, not calculated"}, {"measurement": "tumour outcome (control, treated, inhibition, significance)", "setting": "Dose [Inhibitor]: 17 NMOL IN 0.2 ML ACETONE 1 HR PRIOR TO EACH PROMOTER DOSE FOR 12 WK (STUDY DURATION: 14 WK), Strain/Sex: SENCAR/FEMALE", "result": "100%, 72%, 28%, not calculated"}, {"measurement": "tumour outcome (control, treated, inhibition, significance)", "setting": "Dose [Inhibitor]: 17 NMOL IN 0.2 ML ACETONE 1 HR PRIOR TO EACH PROMOTER DOSE FOR 20 WK (STUDY DURATION: 22 WK), Strain/Sex: CD-1/FEMALE", "result": "94%, 33%, 65%, not calculated"}, {"measurement": "tumour outcome (control, treated, inhibition, significance)", "setting": "Dose [Inhibitor]: 170 NMOL IN 0.2 ML ACETONE 1 HR PRIOR TO EACH PROMOTER DOSE FOR 12 WK (STUDY DURATION: 14 WK), Strain/Sex: SENCAR/FEMALE", "result": "100%, 0%, 100%, not calculated"}, {"measurement": "tumour outcome (control, treated, inhibition, significance)", "setting": "Dose [Inhibitor]: 170 NMOL IN 0.2 ML ACETONE 1 HR PRIOR TO EACH PROMOTER DOSE FOR 20 WK (STUDY DURATION: 22 WK), Strain/Sex: CD-1/FEMALE", "result": "94%, 0%, 100%, not calculated"}]}]}
